This is an account of results in US20100048676A1, “Non-androgen dependent roles for androgen receptor in liver cancer” (University of Rochester, priority 2008, published 2010).

Read-outs that look alike come from different tables or passages of the source.

The subject of series [1] is AR. The series is described as follows: AR expression in SKAR3 cells stably transfected with AR-siRNA. In kind it is cell-based, human. The following applies: SKAR3-si1, 2 or 3 vs SKAR3-sc. An excerpt:
(§1) FIG. 6. Targeting AR as therapeutic strategy. (A) Establishment of AR siRNA stable transfectants of human SKAR3 cells. Scrambled siRNA (SKAR3-sc, lane 3) and different siRNA targeting AR (SKAR3-si1; SKAR3-si2; SKAR3-si3) stable transfectants derived from SKAR3 cells. LNCaP and SK-Hep1 cells served as positive and negative controls of AR expression, respectively. (B) AR transactivation activity was used to examine the knockdown efficiency of AR siRNA in the SKAR3 cells. The SKAR3-si1 cells were used to compare with SKAR3-sc cells and treated with EtOH and 1 nM DHT for 24 hrs after ARE(4)-luciferase transfection. The readings were normalized with the read out of pRL-TK cotransfection and pooled three individual experiments. (C) AR siRNA effect on SKAR3 cell growth. SKAR3-sc and SKAR3-si1 cells were treated with EtOH or 1 nM DHT, then observed cell growth by counting cells on different days. (D) ASC-J9 effect on SKAR3 and SKAR7 cells. Cells were plated and cultured with EtOH, 10 nM DHT and 5 μM ASC-J9 for different days and examined cell growth using MTT assay. (E) ASC-J9 effect on SKAR3 cell apoptosis and proliferation. Cells were cultured with 10 nM DHT, or 5 μM ASC-J9 for 24 hrs, then detached, stained with PI, assayed immediately by flowcytometry to observe cell apoptosis. […] Six injection sites from 3 mice were measured and pooled. […]

The subject of series [2] is AR transactivation. The series is described as follows: ARE(4)-luciferase promoter assay of AR transactivation in SKAR3 sublines. In kind it is cell-based, human. The following applies: 1 nM DHT.
From the text: as §1

Series [3] relates to SKAR3 cells. The series is described as follows: AR siRNA effect on SKAR3 cell growth (SKAR3-sc vs SKAR3-si1). The following applies: 1 nM DHT. The series is classed as cell-based, human.
From the text: as §1

Series [4] concerns AR. Particulars: MCF-7 cells, retrovirus-based vector; cited from earlier work.
For series [5], the system named is SKAR3 cells. In words: SKAR3 cell apoptosis, PI staining and flowcytometry. In kind it is cell-based, human. The following applies: 5 μM ASC-J9, 24 hrs, absence or presence of 10 nM DHT.
From the text: as §1

For series [6], the system named is SKAR7 cells. The series is described as follows: ASC-J9 effect on SKAR7 cell growth (MTT assay). In kind it is cell-based, human. Particulars: 5 μM ASC-J9, in the presence of 10 nM DHT.
From the text: as §1

The conditions of series [7]: injection of ASC-J9 for 15 weeks, mice; cited from earlier work.
In series [8] the test system is primary liver tumor of AR+/y mice. The series is described as follows: Primary liver tumor cells inoculated subcutaneously into nude mice, tumor growth. The series is classed as in vivo, mouse. Particulars: I.P. 50 mg/kg/mice twice per week, 17 weeks.
From the text: as §1

The test system of series [9] is SKAR3 cells. The series is described as follows: ASC-J9 effect on SKAR3 cell growth (MTT assay). In kind it is cell-based, human. Particulars: 5 μM ASC-J9, in the presence of 10 nM DHT.
From the text: as §1

The test system of series [10] is primary tumor cells isolated from AR+/y mice livers. In words: Growth of primary cells from DEN-induced AR+/y liver tumors (MTT assay). The series is classed as cell-based, mouse. In general terms: Formazan colour is commonly taken as a measure of viable cells.
Method: (E) Cell growth analysis using MTT assay on the cells derived from AR^+/y primary liver tumor culture in 55-weeks DEN-induced AR^+/y mice. Cells within 3 passages of subculture were used, treated with ethanol (EtOH) or DHT at different concentrations (1 and 10 nM). Cell growth was monitored for a maximum of 8 days and harvested for MTT assay. Values from background readings at 650 nm were subtracted and pooled all MTT assay results from 5 independent experiments.
(F) Primary cells were derived from 55-weeks DEN-induced AR^+/y liver tumors and cultured ex vivo. Cells were treated with ASC-J9 or cotreated with 10 nM DHT for 8 days, then harvested for MTT assay. The result represents three independent experiments.
The hepatic cells were isolated from 55-weeks-old DEN-treated mice and performed primary hepatic cell culture as described previously(30). […] The cells were maintained in DMEM (Invitrogen) with 10% Fetal Calf Serum (FCS), 1% Glutamine; and 1% penicillin/streptomycin. The cell growth assays were performed according to a previous study(32) using cell counting assay or MTT (3-(4,5-Dimethylthiazol-2-yl)-2,5-diphenyltetrazolium bromide) assay(33).
The subject of series [11] is SKAR3 cells. Particulars: 1 nM DHT with H2O2 treatment, 24 hrs.
Method: (B) SKpar and SKAR3 cells were treated with 200 μM H2O2 or 1 nM DHT for 24 hrs and measured ROS level.
Series [12] has as its system superoxide dismutase 2 (SOD2). The following applies: 10 nM DHT. The method, then: (§2) FIG. 10. Examination of ROS reducing gene mRNA expression using SKpar and SKAR cells, (A, B) We plated cells and treated as indicated for 24 hrs. We examined Thioreducin-2 (A) and SOD2 (B) mRNA using Q-PCR as described in Methods.
(§3) The mRNA expression of MnSOD (SOD2), Thioreducin-2, and Gadd45 was determined using quantitative RT-PCR (Q-PCR) as previous described(37), and primer sequences are as follows.

Series [13] has as its system thioreducin-2. Particulars: 10 nM DHT. The procedure:
as §2, §3

Series [14] concerns SKAR3 cells. The following applies: SKAR3-EtOH vs SKAR3-DHT, 10 nM DHT, 4 days. The method, then: (§4) FIG. 3. […] (A) Apoptotic cells in SKpar and SKAR3 cells. […] (B) Androgen and AR effect on anchorage-dependent cell growth. […] (C) Anchorage-independent cell growth of SKpar and SKAR3 cells. Cell clusters greater than 50 cells were counted as a positive clone.
(§5) The hepatic cells were isolated from 55-weeks-old DEN-treated mice and performed primary hepatic cell culture as described previously(30). The cells were plated onto 100-mm BioCoat mouse collagen I coated dishes (BD Biosciences) at a density of 5×10^5 viable cells/dish in low glucose Dulbecco's modified Eagle's medium (Invitrogen) containing 1% bovine serum albumin, 0.8 mM oleate, […] insulin (4 milliunits/ml), […] dexamethasone, 100 units of penicillin, and 1% of streptomycin/ml. Human HCC cells were obtained from Dr. Y. S. Jou in Acdemia Secienica, Taiwan published previously(31). The cells were maintained in DMEM (Invitrogen) with 10% Fetal Calf Serum (FCS), 1% Glutamine; and 1% penicillin/streptomycin.

Series [15] concerns SKpar cells. The following applies: SKpar-EtOH vs SKpar-DHT, 10 nM DHT, 4 days. The procedure:
as §4, §5

Series [16] deals with SKAR3 cells. Particulars: 10 nM DHT.
From the text: as §4

The subject of series [17] is p53. Particulars: 10 nM DHT for 2, 4, and 8 hrs, time-dependent.
Method: (A) p53 protein expression of SKpar and SKAR3 cells. We treated SKpar and SKAR3 cells with 10 nM DHT for 2, 4, and 8 hrs and measured protein abundance by immunoblotting assay using p53 specific antibody. GAPDH served as loading control.
The p53 expression was analyzed using immunoblotting assay(32) to semi-quantitate p53 protein abundance in the hepatic tumor and HCC cells. […] Protein abundance was measured by Western blotting as previously described(38) using specific antibodies against AR (Pharmingen), p53 (Cell Signaling), Gadd45, . . . , and Bcl-2 (Santa Cruz).

As to “AR-siRNA: retrovirus-based vector that expresses AR-siRNA; stable SKAR3 sublines SKAR3-si1, 2 or 3 (guide GGGCCCCTGGATGGATAGCTACCTCGAGGTAGCTATCCATCCAGGGGCC)”, the AR expression result in series [1] is reported as “substantially knocked down”. Besides, the “AR-mediated transactivation under AR-siRNA” value in [2] (SKAR3-si1 vs SKAR3-sc, 24 hrs) was “could induce substantial AR transactivation in SKAR3-sc, but not SKAR3-si1 cells”. Besides, the DHT-induced cell growth entry in [3] is “suppression of DHT-induced cell growth”. Besides, the AR knockdown entry in series [4] is on record as “effectively knocked down the AR”.
Consider `COc1ccc(C=CC(=O)C=C(O)C=Cc2ccc(OC)c(OC)c2)cc1OC` [ASC-J9, 5-hydroxy-1,7-bis(3,4-dimethoxyphenyl)-1,4,6-heptatrien-3-one], for which, in series [5], the cell apoptosis entry is reported as “increased cell apoptosis”. Moreover, the cell growth result in [6] is recorded as “suppression of cell growth”. For the same molecule, in series [7], the serum testosterone result is recorded as “little change in serum testosterone”; the “sexual function and fertility” value was “retained normal sexual function and fertility”. The tumor growth result in [8] is listed as “suppression of tumor growth”. Besides, the cell growth result in series [9] is “suppression of cell growth”. In addition, the “primary tumor cell growth” value in series [10] (5 μM ASC-J9, absence or presence of 10 nM DHT, 8 days) is on record as “suppressed the primary tumor cell growth”.
`C[C@]12CCC(=O)C[C@@H]1CC[C@@H]1[C@@H]2CC[C@]2(C)[C@@H](O)CC[C@@H]12` [DHT, 5α-dihydrotestosterone]: the ROS level entry in series [11] is recorded as “further enhanced”. Further, in series [12] (SKAR3 cells treated with H2O2), the “SOD2 mRNA expression” value is recorded as “decreased”. For the same molecule, the “H2O2-induced SOD2 mRNA expression” value in [12] (SKpar cells) is “failed to suppress”. For the same molecule, in series [13] (SKAR3 cells treated with H2O2), the “thioreducin-2 mRNA expression” value is “decreased”. For the same molecule, the “H2O2-induced thioreducin-2 mRNA expression” value in [13] (SKpar cells) is recorded as “failed to suppress”. The cell growth result in series [14] is on record as “further increased cell growth”; in series [15], “little effect”. The “AR transactivation induced by DHT” value in [2] (SKAR3-sc cells) is reported as “could induce substantial AR transactivation”. Further, the “AR-promoted anchorage-independent cell growth” value in [16] was “little influence”. Besides, the p53 protein expression result in series [17] was “down-regulation of p53”. For the same molecule, the “cell growth (cell numbers)” value in series [10] (DHT 1 and 10 nM, maximum of 8 days) was “cell numbers increased in a dose-dependent manner”.
